Results reported in PubChem BioAssay (NCI).
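Five concentrations, 48 hours, 96-well plates. GI50: concentration for 50% inhibition of growth. TGI denotes the concentration required for complete inhibition of growth.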

Tests used:
Assay in all cases: inhibition of tumour cell growth, NCI panel, 48 h
OVCAR-3 ovarian = test system: OVCAR-3 ovarian
T-47D breast = test system: T-47D breast
DU-145 prostate = test system: DU-145 prostate
SR leukemia = test system: SR leukemia
U251 CNS = test system: U251 CNS
TK-10 renal = test system: TK-10 renal
LOX IMVI melanoma = test system: LOX IMVI melanoma
HCT-15 colon = test system: HCT-15 colon

SMILES | TGI (OVCAR-3 ovarian) [µM] | TGI (T-47D breast) [µM] | TGI (DU-145 prostate) [µM] | TGI (SR leukemia) [µM] | TGI (U251 CNS) [µM] | TGI (TK-10 renal) [µM] | GI50 (LOX IMVI melanoma) [µM] | TGI (LOX IMVI melanoma) [µM] | GI50 (OVCAR-3 ovarian) [µM] | GI50 (T-47D breast) [µM] | GI50 (DU-145 prostate) [µM] | GI50 (HCT-15 colon) [µM] | TGI (HCT-15 colon) [µM] | GI50 (U251 CNS) [µM] | GI50 (TK-10 renal) [µM] | GI50 (SR leukemia) [µM]
C[C@]12CC[C@H](O)CC1=CC[C@@H]1C2CC[C@]2(C)c3nn(-c4ccc(F)cc4)nc3CC12 (stereo not given in full) | > 100 | > 100 | > 100 | > 100 | > 100 | > 100 | – | – | – | – | – | – | – | – | – | –
Fc1ccc(Oc2nccc(-c3c(-c4ccc(F)cc4)ncn3C3CCNCC3)n2)cc1 | > 25 | > 25 | > 25 | – | > 25 | > 25 | > 25 | > 25 | > 25 | > 18 | > 25 | > 25 | > 25 | > 25 | > 19.9 | –
Nc1nc(Nc2ccc3c(c2)CC[C@@H](N2CCCC2)CC3)nn1-c1cc2c(nn1)-c1ccccc1CCC2 | 3.36 | 5.1 | 3 | 2.69 | – | 2.97 | 1.5 | 2.92 | 1.74 | 2.16 | 1.35 | 0.798 | 2.26 | – | 1.35 | 0.441
CCC1=C[C@@H]2CN(C1)Cc1c([nH]c3ccccc13)[C@@](C(=O)OC)(c1cc3c(cc1OC)N(C=O)[C@H]1[C@@](O)(C(=O)OC)[C@H](OC(C)=O)[C@]4(CC)[C@@H]5C[C@@H]5CN5CC[C@]31[C@@H]54)C2 | – | > 6.25 | – | – | > 6.25 | > 6.25 | < 0.000625 | > 6.25 | < 0.000625 | < 0.000625 | < 0.000625 | 0.107 | > 6.25 | 0.000676 | 0.315 | < 0.000625
CN(C)NC1=NS(=O)(=O)c2cc3c(cc2S1)N(N(C)C)C(=O)c1cc2c(cc1N(N(C)C)C3=O)SC(NN(C)C)=NS2(=O)=O | > 10 | > 10 | > 10 | > 10 | > 10 | > 10 | – | > 10 | – | – | – | – | > 10 | – | – | –
COc1c(C)c2c(c(O)c1C/C=C(\C)CCC(=O)OCCN1CCOCC1)C(=O)OC2 | > 100 | > 100 | > 100 | 32.6 | > 100 | > 100 | 0.125 | > 100 | 0.348 | 0.612 | 0.415 | 0.0928 | > 100 | 0.11 | > 24.7 | 0.24
O=C(Nc1ccc(-n2cc(-c3ccncc3)c(-c3ccc(Cl)c(O)c3)n2)cc1)Nc1cc(C(F)(F)F)cc(C(F)(F)F)c1 | 2.89 | 8 | 3.34 | – | 2.98 | 11.4 | 1.63 | 3.02 | 1.52 | 1.85 | 1.78 | 1.9 | 4.3 | 1.51 | 3.05 | –
O=C1C(=Cc2ccco2)C(=O)C2CCCCC12 (stereo not given) | > 100 | > 100 | > 100 | > 100 | > 100 | > 100 | – | > 100 | – | – | – | – | > 100 | – | – | –
COc1ccc(C2=NN(C(=O)COc3ccc(Cl)cc3)C(O)(c3cc(F)c(Cl)cc3Cl)C2)cc1OC (stereo not given) | 1.46 | 3.29 | 3.73 | 6.89 | 16.6 | 5.09 | 1.4 | 2.78 | 0.214 | 1.51 | 1.25 | 1.39 | 3 | 5.69 | 2.36 | 1.97
COc1ccc2c(c1)nc(N)c1c3cc(OC)c(OC)cc3cn21 | – | 25.5 | 8.63 | 5.04 | 14.6 | 20.8 | – | 18.4 | – | 0.721 | – | < 0.01 | 13.3 | 0.118 | 3.48 | < 0.01
OC(C1=C/C(=C\c2ccncc2)c2ccccc21)c1ccncc1 (stereo not given) | 31.7 | 33.7 | 62.2 | 29.1 | 31.4 | 32.3 | – | 32 | – | – | – | – | > 63.5 | – | – | –
CCN1C(=O)N(CC)C2C1NN=c1s/c(=C3\C(=O)N(CC(C)C)c4ccccc43)c(=O)n12 (stereo not given) | 0.799 | > 100 | > 30.4 | > 100 | 27.4 | > 56.6 | 0.811 | > 100 | 0.284 | 0.311 | 0.777 | 0.438 | > 100 | 0.548 | 8.08 | 0.522
COc1cc(NC(=O)c2cc(OC)c3ccn(C)c3c2)cc2c1C[C@]1(C)CC[C@@H](O)C(C)(C)[C@H]1O2 | > 100 | > 100 | > 100 | > 100 | > 100 | > 100 | 4.08 | 19 | 12.6 | 10.3 | 9.08 | 5.13 | > 100 | 4.05 | 35.9 | 2.96
CCN(CC)CCOc1ccc(Nc2ncc3cc(-c4ccc(O)cc4)c(=O)n(C)c3n2)cc1 | 31.2 | 31.8 | 26.3 | 2.76 | 2.81 | 8.73 | 0.168 | 5.87 | 15.9 | 12.2 | 12.9 | 0.191 | 1.75 | 1.4 | 3.9 | 0.0662
C/C=C(\C)C(=O)N[C@H]1[C@@H](OC(C)=O)C[C@]2(C)C3CC[C@@]4(C)C(CC[C@@H]4C(C)N(C)C)C3CCC2[C@H]1O (stereo not given in full) | 19.1 | 10.3 | 21.3 | – | 18.3 | 24.5 | 1.78 | 4.02 | 5.56 | 2.06 | 6.4 | 1.46 | 4.22 | 4.48 | 8.32 | –
Cn1ccc2c(NCCN)c3c(c(NCCN)c21)C(=O)c1ccccc1C3=O | 5.37 | 62 | 6.05 | – | 9.88 | 9.96 | 0.651 | 2 | 0.795 | 27.4 | 0.453 | 2.8 | > 32 | 1.03 | 2.53 | –
